Test results as given in US9999619B2, “Piperidin-4-yl azetidine derivatives as JAK1 inhibitors” (Incyte Corporation, priority 2010, dated 2018).

Columns and labels:
Assay type in all cases: biochemical
[1] = target: human JAK1 (a.a. 837-1142) (Homo sapiens, UniProt P23458); experiment: In vitro JAK kinase assay (HTRF, phosphorylation of a biotinylated peptide), JAK1; conditions: measured at 1 mM ATP
Procedure, shortened: (§1)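 N-terminally His-tagged catalytic domains, baculovirus-expressed in insect cells and purified, were used as enzyme. Reactions ran 1 hr at room temperature and were stopped with a mix of 45 mM EDTA, 300 nM SA-APC and 6 nM Eu-Py20. The HTRF signal was read after 40 min of antibody binding.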

[2] = target: human JAK1 (a.a. 837-1142); experiment: as above; conditions: ratio of JAK2 IC50 to JAK1 IC50, measured at 1 mM ATP
Procedure, shortened: as §1

Jak2 (a.a. 828-1132) = Jak2 (a.a. 828-1132) (Homo sapiens (Human), UniProt O60674); experiment: In vitro JAK kinase assay (HTRF, phosphorylation of a biotinylated peptide), JAK2; conditions: measured at 1 mM ATP
Procedure, shortened: as §1

Chain of Jak2 (a.a. 828-1132) (O60674 828-1132): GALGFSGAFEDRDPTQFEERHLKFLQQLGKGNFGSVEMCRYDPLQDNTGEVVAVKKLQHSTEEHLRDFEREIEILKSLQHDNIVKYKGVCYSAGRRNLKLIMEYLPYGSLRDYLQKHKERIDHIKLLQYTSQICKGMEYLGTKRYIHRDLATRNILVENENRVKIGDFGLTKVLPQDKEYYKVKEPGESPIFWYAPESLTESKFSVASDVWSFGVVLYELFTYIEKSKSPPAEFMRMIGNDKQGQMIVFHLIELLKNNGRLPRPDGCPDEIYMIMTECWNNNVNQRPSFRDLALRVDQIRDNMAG

Structure (SMILES): CN(C)Cc1cc(C#N)cc(C(=O)N2CCC(N3CC(CC#N)(n4cc(-c5ncnc6[nH]ccc56)cn4)C3)CC2)c1 [Example 369, 3-[(4-{3-(cyanomethyl)-3-[4-(7H-pyrrolo[2,3-d]pyrimidin-4-yl)-1H-pyrazol-1-yl]azetidin-1-yl}piperidin-1-yl)carbonyl]-5-[(dimethylamino)methyl]benzonitrile]
- IC50 [1]: ≤ 5 nM
- IC50 Ratio JAK2/JAK1 [2]: 43.8
- IC50 (Jak2 (a.a. 828-1132)): > 100 nM

Structure (SMILES): Cc1nc(NC(=O)N2CCC(N3CC(CC#N)(n4cc(-c5ncnc6[nH]ccc56)cn4)C3)CC2)sc1C [Example 192, 4-{3-(cyanomethyl)-3-[4-(7H-pyrrolo[2,3-d]pyrimidin-4-yl)-1H-pyrazol-1-yl]azetidin-1-yl}-N-(4,5-dimethyl-1,3-thiazol-2-yl)piperidine-1-carboxamide]
- IC50 [1]: 5 to 20 nM
- IC50 Ratio JAK2/JAK1 [2]: 3.0
- IC50 (Jak2 (a.a. 828-1132)): 10 to 50 nM
